Entries after “also recorded” stand apart in the source; their conditions may differ.
Tested on: Chronic mild stress model in rats
Test: Chronic mild stress model in rats, serum marker analysis
Conditions: for Apo A1 (Apolipoprotein A1), median value: serum 24 hrs after last drug injection; for reversal of chronic mild stress induced changes in serum inflammatory markers / cytokine levels: rats exposed to chronic mild stress, compared with non-stressed controls
From the text: The biochemical changes induced in the animals studied in the stress models lead to increases in inflammatory mediators/markers.
At the end of the present study, terminal serum samples were collected for marker analysis to evaluate the effects of stress with and without drug on the levels of about 60 blood markers.
Serum samples were withdrawn from the tail, without stunning, during the daytime (09:00-17:00) 24 hrs after the last drug injection. Blood was collected into BD vacutainers containing clot activator and gel for serum preparation, inverted 5 times and maintained on ice until centrifugation at 3000 rpm for 10 min at 4° C. Serum was decanted, placed on ice, and at the end of the day stored at −80° C.

CN(C)CCC[C@@]1(c2ccc(F)cc2)OCc2cc(C#N)ccc21 [ESC, escitalopram, reference compound]
CRP (C Reactive Protein), median value (1st study, 5 mg/kg, serum): 1060.00 µg/mL | Eotaxin, median value (1st study, 5 mg/kg, serum): 1300.00 pg/mL | FGF-9 (Fibroblast Growth Factor-9), median value (1st study, 5 mg/kg, serum): 0.90 ng/mL | GCP-2 (Granulocyte Chemotactic Protein-2), median value (1st study, 5 mg/kg, serum): 0.21 ng/mL | Growth Hormone, median value (1st study, 5 mg/kg, serum): 1.38 ng/mL | IL-1alpha (Interleukin-1alpha), median value (1st study, 5 mg/kg, serum): 15.40 pg/mL | IL-2 (Interleukin-2), median value (1st study, 5 mg/kg, serum): 38.80 pg/mL | IL-4 (Interleukin-4), median value (1st study, 5 mg/kg, serum): 51.70 pg/mL | IL-7 (Interleukin-7), median value (1st study, 5 mg/kg, serum): 0.22 ng/mL | IL-10 (Interleukin-10), median value (1st study, 5 mg/kg, serum): 317.00 pg/mL | IL-11 (Interleukin-11), median value (1st study, 5 mg/kg, serum): 166.00 pg/mL | IP-10 (Inducible Protein-10), median value (1st study, 5 mg/kg, serum): 194.00 pg/mL | IgA (Immunoglobulin A), median value (1st study, 5 mg/kg, serum): 6.54 µg/mL | Insulin, median value (1st study, 5 mg/kg, serum): 11.30 uIU/mL | LIF (Leukemia Inhibitory Factor), median value (1st study, 5 mg/kg, serum): 67.20 pg/mL | Leptin, median value (1st study, 5 mg/kg, serum): 2.62 ng/mL | Lymphotactin, median value (1st study, 5 mg/kg, serum): 68.00 pg/mL | M-CSF (Macrophage-Colony Stimulating Factor), median value (1st study, 5 mg/kg, serum): 941.00 ng/mL | MCP-1 (Monocyte Chemoattractant Protein-1), median value (1st study, 5 mg/kg, serum): 1500.00 pg/mL | MCP-3 (Monocyte Chemoattractant Protein-3), median value (1st study, 5 mg/kg, serum): 885.00 pg/mL | MCP-5 (Monocyte Chemoattractant Protein-5), median value (1st study, 5 mg/kg, serum): 0.87 pg/mL | MIP-1alpha (Macrophage Inflammatory Protein-1alpha), median value (1st study, 5 mg/kg, serum): 244.00 ng/mL | MIP-1gamma (Macrophage Inflammatory Protein-1gamma), median value (1st study, 5 mg/kg, serum): 11.50 ng/mL | MIP-2 (Macrophage Inflammatory Protein-2), median value (1st study, 5 mg/kg, serum): 0.09 pg/mL | MPO (Myeloperoxidase), median value (1st study, 5 mg/kg, serum): 54.60 ng/mL | NGAL (Lipocalin-2), median value (1st study, 5 mg/kg, serum): 0.22 ng/mL | Osteopontin, median value (1st study, 5 mg/kg, serum): 310.00 ng/mL | SAP (Serum Amyloid P), median value (1st study, 5 mg/kg, serum): 178.00 µg/mL | SCF (Stem Cell Factor), median value (1st study, 5 mg/kg, serum): 16.95 pg/mL | SGOT (Serum Glutamic-Oxaloacetic Transaminase), median value (1st study, 5 mg/kg, serum): 0.31 µg/mL | TIMP-1 (Tissue Inhibitor of Metalloproteinase Type-1), median value (1st study, 5 mg/kg, serum): 0.22 ng/mL | TPO (Thrombopoietin), median value (1st study, 5 mg/kg, serum): 142.00 ng/mL | Tissue Factor, median value (1st study, 5 mg/kg, serum): 0.15 ng/mL | VCAM-1 (Vascular Cell Adhesion Molecule-1), median value (1st study, 5 mg/kg, serum): 409.00 ng/mL | VEGF (Vascular Endothelial Cell Growth Factor), median value (1st study, 5 mg/kg, serum): 106.00 pg/mL | Apo A1 (Apolipoprotein A1), median value (1st study, 5 mg/kg): 8.40 µg/mL | reversal of chronic mild stress induced changes in serum inflammatory markers / cytokine levels: inactive at most of these changes

Oc1noc2c1CCNC2 [GBX, 4,5,6,7-tetrahydroisoxazolo[5,4-c]pyridine-3-ol]
CRP (C Reactive Protein), median value (1st study, 5 mg/kg, serum): 1140.00 µg/mL | Cystatin-C, median value (1st study, 5 mg/kg, serum): 1165.00 ng/mL | FGF-9 (Fibroblast Growth Factor-9), median value (1st study, 5 mg/kg, serum): 0.59 ng/mL | GCP-2 (Granulocyte Chemotactic Protein-2), median value (1st study, 5 mg/kg, serum): 0.19 ng/mL | Growth Hormone, median value (1st study, 5 mg/kg, serum): 7.67 ng/mL | IL-1alpha (Interleukin-1alpha), median value (1st study, 5 mg/kg, serum): 11.30 pg/mL | IL-2 (Interleukin-2), median value (1st study, 5 mg/kg, serum): 31.30 pg/mL | IL-4 (Interleukin-4), median value (1st study, 5 mg/kg, serum): 29.60 pg/mL | IL-7 (Interleukin-7), median value (1st study, 5 mg/kg, serum): 0.16 ng/mL | IL-10 (Interleukin-10), median value (1st study, 5 mg/kg, serum): 249.00 pg/mL | IL-11 (Interleukin-11), median value (1st study, 5 mg/kg, serum): 128.00 pg/mL | IL-18 (Interleukin-18), median value (1st study, 5 mg/kg, serum): 0.07 ng/mL | IP-10 (Inducible Protein-10), median value (1st study, 5 mg/kg, serum): 138.00 pg/mL | IgA (Immunoglobulin A), median value (1st study, 5 mg/kg, serum): 5.91 µg/mL | Insulin, median value (1st study, 5 mg/kg, serum): 8.88 uIU/mL | LIF (Leukemia Inhibitory Factor), median value (1st study, 5 mg/kg, serum): 53.90 pg/mL | Leptin, median value (1st study, 5 mg/kg, serum): 2.59 ng/mL | Lymphotactin, median value (1st study, 5 mg/kg, serum): 53.80 pg/mL | M-CSF (Macrophage-Colony Stimulating Factor), median value (1st study, 5 mg/kg, serum): 865.00 ng/mL | MCP-1 (Monocyte Chemoattractant Protein-1), median value (1st study, 5 mg/kg, serum): 1185.00 pg/mL | MCP-3 (Monocyte Chemoattractant Protein-3), median value (1st study, 5 mg/kg, serum): 655.00 pg/mL | MCP-5 (Monocyte Chemoattractant Protein-5), median value (1st study, 5 mg/kg, serum): 0.77 pg/mL | MIP-1alpha (Macrophage Inflammatory Protein-1alpha), median value (1st study, 5 mg/kg, serum): 173.00 ng/mL | MIP-1gamma (Macrophage Inflammatory Protein-1gamma), median value (1st study, 5 mg/kg, serum): 7.95 ng/mL | MIP-2 (Macrophage Inflammatory Protein-2), median value (1st study, 5 mg/kg, serum): 0.08 pg/mL | MPO (Myeloperoxidase), median value (1st study, 5 mg/kg, serum): 20.80 ng/mL | NGAL (Lipocalin-2), median value (1st study, 5 mg/kg, serum): 0.17 ng/mL | Osteopontin, median value (1st study, 5 mg/kg, serum): 396.00 ng/mL | SAP (Serum Amyloid P), median value (1st study, 5 mg/kg, serum): 133.00 µg/mL | SCF (Stem Cell Factor), median value (1st study, 5 mg/kg, serum): 14.85 pg/mL | SGOT (Serum Glutamic-Oxaloacetic Transaminase), median value (1st study, 5 mg/kg, serum): 0.21 µg/mL | TIMP-1 (Tissue Inhibitor of Metalloproteinase Type-1), median value (1st study, 5 mg/kg, serum): 0.16 ng/mL | TPO (Thrombopoietin), median value (1st study, 5 mg/kg, serum): 147.00 ng/mL | Tissue Factor, median value (1st study, 5 mg/kg, serum): 0.10 ng/mL | VCAM-1 (Vascular Cell Adhesion Molecule-1), median value (1st study, 5 mg/kg, serum): 361.00 ng/mL | VEGF (Vascular Endothelial Cell Growth Factor), median value (1st study, 5 mg/kg, serum): 81.00 pg/mL | Apo A1 (Apolipoprotein A1), median value (1st study, 5 mg/kg): 8.20 µg/mL | Beta-2 Microglobulin, median value (2nd study, 10 mg/kg, serum): 38.00 µg/mL | CRP (C Reactive Protein), median value (2nd study, 10 mg/kg, serum): 1030.00 µg/mL | Clusterin, median value (2nd study, 10 mg/kg, serum): 108.00 µg/mL | Cystatin-C, median value (2nd study, 10 mg/kg, serum): 696.00 ng/mL | Eotaxin, median value (2nd study, 10 mg/kg, serum): 1072.00 pg/mL | FGF-9 (Fibroblast Growth Factor-9), median value (2nd study, 10 mg/kg, serum): 1.70 ng/mL | Factor VII, median value (2nd study, 10 mg/kg, serum): 0.30 ng/mL | GCP-2 (Granulocyte Chemotactic Protein-2), median value (2nd study, 10 mg/kg, serum): 0.29 ng/mL | GST-Mu, median value (2nd study, 10 mg/kg, serum): 1190.00 ng/mL | Growth Hormone, median value (2nd study, 10 mg/kg, serum): 3.10 ng/mL | IL-1beta (Interleukin-1beta), median value (2nd study, 10 mg/kg, serum): 0.56 ng/mL | IL-2 (Interleukin-2), median value (2nd study, 10 mg/kg, serum): 22.00 pg/mL | IL-5 (Interleukin-5), median value (2nd study, 10 mg/kg, serum): 0.24 ng/mL | IL-7 (Interleukin-7), median value (2nd study, 10 mg/kg, serum): 0.06 ng/mL | IL-10 (Interleukin-10), median value (2nd study, 10 mg/kg, serum): 362.00 pg/mL | IL-18 (Interleukin-18), median value (2nd study, 10 mg/kg, serum): 0.43 ng/mL | IP-10 (Inducible Protein-10), median value (2nd study, 10 mg/kg, serum): 41.00 pg/mL | IgA (Immunoglobulin A), median value (2nd study, 10 mg/kg, serum): 4.30 µg/mL | Insulin, median value (2nd study, 10 mg/kg, serum): 14.50 uIU/mL | LIF (Leukemia Inhibitory Factor), median value (2nd study, 10 mg/kg, serum): 67.00 pg/mL | Leptin, median value (2nd study, 10 mg/kg, serum): 1.35 ng/mL | Lymphotactin, median value (2nd study, 10 mg/kg, serum): 63.00 pg/mL | M-CSF (Macrophage-Colony Stimulating Factor), median value (2nd study, 10 mg/kg, serum): 1400.00 ng/mL | MCP-1 (Monocyte Chemoattractant Protein-1), median value (2nd study, 10 mg/kg, serum): 1020.00 pg/mL | MCP-3 (Monocyte Chemoattractant Protein-3), median value (2nd study, 10 mg/kg, serum): 659.00 pg/mL | MCP-5 (Monocyte Chemoattractant Protein-5), median value (2nd study, 10 mg/kg, serum): 0.72 pg/mL | MDC (Macrophage-Derived Chemokine), median value (2nd study, 10 mg/kg, serum): 0.12 pg/mL | MIP-1alpha (Macrophage Inflammatory Protein-1alpha), median value (2nd study, 10 mg/kg, serum): 127.00 ng/mL | MIP-1beta (Macrophage Inflammatory Protein-1beta), median value (2nd study, 10 mg/kg, serum): 0.01 pg/mL | MIP-1gamma (Macrophage Inflammatory Protein-1gamma), median value (2nd study, 10 mg/kg, serum): 19.00 ng/mL | MIP-2 (Macrophage Inflammatory Protein-2), median value (2nd study, 10 mg/kg, serum): 0.22 pg/mL | MIP-3beta (Macrophage Inflammatory Protein-3beta), median value (2nd study, 10 mg/kg, serum): 29.70 ng/mL | MPO (Myeloperoxidase), median value (2nd study, 10 mg/kg, serum): 533.00 ng/mL | Myoglobin, median value (2nd study, 10 mg/kg, serum): 520.00 ng/mL | NGAL (Lipocalin-2), median value (2nd study, 10 mg/kg, serum): 0.15 ng/mL | OSM (Oncostatin M), median value (2nd study, 10 mg/kg, serum): 19.10 ng/mL | Osteopontin, median value (2nd study, 10 mg/kg, serum): 255.00 ng/mL | RANTES (Regulation Upon Activation, Normal T-Cell Expressed and Secreted), median value (2nd study, 10 mg/kg, serum): 10.60 pg/mL | SAP (Serum Amyloid P), median value (2nd study, 10 mg/kg, serum): 403.00 µg/mL | SCF (Stem Cell Factor), median value (2nd study, 10 mg/kg, serum): 11.30 pg/mL | SGOT (Serum Glutamic-Oxaloacetic Transaminase), median value (2nd study, 10 mg/kg, serum): 8.53 µg/mL | TIMP-1 (Tissue Inhibitor of Metalloproteinase Type-1), median value (2nd study, 10 mg/kg, serum): 0.24 ng/mL | TNF-alpha (Tumor Necrosis Factor-alpha), median value (2nd study, 10 mg/kg, serum): 4.45 ng/mL | TPO (Thrombopoietin), median value (2nd study, 10 mg/kg, serum): 119.00 ng/mL | Tissue Factor, median value (2nd study, 10 mg/kg, serum): 0.06 ng/mL | VCAM-1 (Vascular Cell Adhesion Molecule-1), median value (2nd study, 10 mg/kg, serum): 353.00 ng/mL | VEGF (Vascular Endothelial Cell Growth Factor), median value (2nd study, 10 mg/kg, serum): 78.00 pg/mL | Apo A1 (Apolipoprotein A1), median value (2nd study, 10 mg/kg): 6.20 µg/mL | reversal of chronic mild stress induced changes in serum inflammatory markers / cytokine levels (listed as gaboxadol): dose dependently was able to reverse most of the chronic mild stress induced changes in cytokine levels; also recorded: significantly reversed the stress-induced alterations in serum markers toward levels found in non-stressed controls; also recorded: dose dependently is able to reverse or partially reverse changes at most in inflammatory parameters induced by chronic mild stress

From patent publication US20090048288A1, “METHOD OF TREATING STRESS-MEDIATED DEPRESSION” (H. Lundbeck A/S, priority 2007, published 2009)
